Assay [1] has as its target MmTPC1 Leu11Ala/Ile12Ala (plasma membrane-targeting, considered as the wild type channel) (Mus musculus, UniProt Q9EQJ0, I12A/L11A/R540Q). Put plainly: inside-out patch clamp, HEK293 cells. The format is cell-based.
For assay [2], the target named is Mouse TPC1 (two-pore channel 1) (mouse) (UniProt Q9EQJ0). Nature of the assay: cryo-EM structure.

For `CCCCCCCC(=O)OC[C@H](COP(=O)(O)O[C@@H]1[C@H](O)[C@H](OP(=O)(O)O)[C@@H](O)[C@H](OP(=O)(O)O)[C@H]1O)OC(=O)CCCCCCC` [PtdIns(3,5)P2], the EC50 in assay [1] was about 145 nM.

With “Mouse TPC1 (two-pore channel 1) (from UniProt Q9EQJ0-1 1-817) (natural protein)”, in assay [2], the stoichiometry N amounted to 2.

The EC50 is the midpoint of the concentration-response curve. A word on the stoichiometry N: it is a count of units in the complex or per binding partner.

The values are drawn from PMC5886804 (Nature, 2018).
